Each structure is given as a SMILES string. Where only a bound is given, the exact number is not on record here.

These results are taken from patent US20140179664A1, “Heterocyclyl Pyrimidine Analogues As JAK Inhibitors” (Cellzome Limited, priority 2011, published 2014).

One experiment has as its target T1, JAK3 (Homo sapiens, UniProt P52333).
T1 construct: endogenous in cells; host or cells: Molt4 (ATCC CRL-1582) and Ramos (ATCC CRL-1596), mixed lysate 1:2
T1 sequence (P52333 1-1124): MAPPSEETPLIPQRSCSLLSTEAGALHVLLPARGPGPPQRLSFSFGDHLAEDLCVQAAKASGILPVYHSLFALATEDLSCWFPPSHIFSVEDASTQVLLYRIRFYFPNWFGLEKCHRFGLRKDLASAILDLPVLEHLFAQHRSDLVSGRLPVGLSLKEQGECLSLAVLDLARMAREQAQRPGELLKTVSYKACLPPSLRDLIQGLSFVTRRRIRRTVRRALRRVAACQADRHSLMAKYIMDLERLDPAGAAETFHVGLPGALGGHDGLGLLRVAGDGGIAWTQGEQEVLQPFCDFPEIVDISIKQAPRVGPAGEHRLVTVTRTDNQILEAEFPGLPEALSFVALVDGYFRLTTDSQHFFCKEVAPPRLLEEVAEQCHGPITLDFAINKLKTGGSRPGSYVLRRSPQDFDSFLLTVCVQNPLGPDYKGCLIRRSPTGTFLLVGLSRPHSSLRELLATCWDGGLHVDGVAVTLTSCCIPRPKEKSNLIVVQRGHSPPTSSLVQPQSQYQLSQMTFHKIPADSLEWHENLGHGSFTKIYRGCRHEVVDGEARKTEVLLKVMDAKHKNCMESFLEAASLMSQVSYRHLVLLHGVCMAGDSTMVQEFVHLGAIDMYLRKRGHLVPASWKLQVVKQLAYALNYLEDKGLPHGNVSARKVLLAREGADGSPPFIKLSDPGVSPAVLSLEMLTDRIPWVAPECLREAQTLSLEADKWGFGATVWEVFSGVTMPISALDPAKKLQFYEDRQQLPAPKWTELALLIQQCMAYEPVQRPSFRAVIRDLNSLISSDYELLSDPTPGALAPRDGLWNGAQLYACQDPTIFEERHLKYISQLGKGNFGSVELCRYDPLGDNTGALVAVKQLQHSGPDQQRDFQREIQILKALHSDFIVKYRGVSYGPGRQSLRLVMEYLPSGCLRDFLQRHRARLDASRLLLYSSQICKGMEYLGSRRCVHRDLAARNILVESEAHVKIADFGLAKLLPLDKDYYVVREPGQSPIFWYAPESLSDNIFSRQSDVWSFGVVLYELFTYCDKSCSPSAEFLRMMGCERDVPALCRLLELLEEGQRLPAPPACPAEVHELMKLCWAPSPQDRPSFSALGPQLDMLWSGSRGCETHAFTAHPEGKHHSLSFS
Nature of the experiment: Kinobeads assay, JAK3. The experiment is classed as binding. The conditions noted are these: mixed Molt4/Ramos lysate, read-out: Inhibition values (IC50) JAK3. The method in brief:
(§1)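 IC50s come from capture competition: compound at various concentrations versus an immobilized aminopyrido-pyrimidine ligand for kinases in 1:2 Molt4/Ramos lysate (10 mg/mL), 3 h in a cold room. Captured JAK-family kinases were measured by specific-antibody dot blot with Odyssey infrared detection.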

The target in another experiment is T2, TYK2 (Homo sapiens, UniProt P29597).
T2 construct: endogenous in cells; host or cells: Molt4 (ATCC CRL-1582) and Ramos (ATCC CRL-1596), mixed lysate 1:2
Nature of the experiment: Kinobeads assay, TYK2. Particulars: mixed Molt4/Ramos lysate, read-out: Inhibition values (IC50) TYK2. The experiment is classed as binding. A digest of the protocol: as §1

T2 sequence (P29597 whole entry): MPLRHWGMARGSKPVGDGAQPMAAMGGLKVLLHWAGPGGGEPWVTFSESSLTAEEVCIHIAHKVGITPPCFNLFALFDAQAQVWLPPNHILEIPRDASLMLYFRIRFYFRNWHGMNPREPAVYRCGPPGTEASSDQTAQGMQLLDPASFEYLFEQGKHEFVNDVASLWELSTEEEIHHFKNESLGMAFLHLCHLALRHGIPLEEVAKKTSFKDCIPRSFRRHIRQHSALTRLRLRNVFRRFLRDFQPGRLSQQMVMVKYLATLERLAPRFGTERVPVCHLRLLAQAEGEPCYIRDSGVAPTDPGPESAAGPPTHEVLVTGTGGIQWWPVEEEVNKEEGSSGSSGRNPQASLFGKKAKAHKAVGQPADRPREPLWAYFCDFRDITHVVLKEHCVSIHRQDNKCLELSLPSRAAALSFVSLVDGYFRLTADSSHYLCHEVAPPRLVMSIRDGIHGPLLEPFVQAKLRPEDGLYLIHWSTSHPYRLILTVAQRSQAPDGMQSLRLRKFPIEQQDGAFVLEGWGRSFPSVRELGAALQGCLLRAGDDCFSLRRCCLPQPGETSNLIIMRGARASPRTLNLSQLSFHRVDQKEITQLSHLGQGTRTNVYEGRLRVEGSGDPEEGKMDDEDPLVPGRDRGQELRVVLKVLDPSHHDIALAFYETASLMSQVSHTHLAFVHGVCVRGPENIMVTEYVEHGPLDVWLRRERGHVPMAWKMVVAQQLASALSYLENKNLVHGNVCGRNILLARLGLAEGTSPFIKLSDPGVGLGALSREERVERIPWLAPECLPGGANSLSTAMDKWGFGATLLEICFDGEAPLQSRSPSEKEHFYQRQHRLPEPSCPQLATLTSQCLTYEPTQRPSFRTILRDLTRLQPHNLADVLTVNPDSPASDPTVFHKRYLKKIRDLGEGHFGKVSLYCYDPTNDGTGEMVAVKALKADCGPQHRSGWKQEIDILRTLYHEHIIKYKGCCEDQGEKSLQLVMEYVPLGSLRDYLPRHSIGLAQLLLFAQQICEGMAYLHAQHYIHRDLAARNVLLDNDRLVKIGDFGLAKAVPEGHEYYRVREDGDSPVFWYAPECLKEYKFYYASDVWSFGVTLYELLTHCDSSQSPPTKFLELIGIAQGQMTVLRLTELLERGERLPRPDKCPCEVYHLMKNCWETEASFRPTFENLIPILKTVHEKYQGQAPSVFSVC

Consider `CNC(=O)Cn1cc(Nc2ncc(Cl)c(N[C@H](CO)c3cccnc3)n2)cn1` [Compound 170], for which the 50% inhibitory concentration (IC50) is below 100 nM on JAK3 and 1000 to 10000 nM at TYK2.
